Values of other authors in PMC9762682, “Tocotrienols: Exciting Biological and Pharmacological Properties of Tocotrienols and Naturally Occurring Compounds, Part II” (Annals of clinical case reports, 2022).
Where a name gives a salt, the structure may show the parent alone. Read-outs that look alike come from different tables or passages of the source.

Legend:
[1] = test system: people with T2DM; settings: for Fasting Glucose, Post-dose, percentage of control (pre-dose) in parentheses / MDA, Post-dose / MDA, Post-dose, percentage of control (pre-dose) in parentheses / hs-CRP, Post-dose / hs-CRP, Post-dose, percentage of control (pre-dose) in parentheses / Fasting Glucose, Post-dose: serum; for Fasting Glucose, Post-dose, percentage of control (pre-dose) in parentheses / MDA, Post-dose / MDA, Post-dose, percentage of control (pre-dose) in parentheses / hs-CRP, Post-dose / hs-CRP, Post-dose, percentage of control (pre-dose) in parentheses / Fasting HbA1c, Post-dose / Fasting HbA1c, Post-dose, percentage of control (pre-dose) in parentheses / HOMA-IR, Post-dose / HOMA-IR, Post-dose, percentage of control (pre-dose) in parentheses: two capsules/d for 24-weeks; for Fasting Glucose, Post-dose: two capsules/d for 24-weeks (δ-tocotrienol 250 mg, vitamin D3 5000 IU, resveratrol 250 mg per capsule)
[2] = test system: TNF-α; settings: LPS-induced macrophages of wild type (C57BL/6) control group
[3] = test system: TNF-α; settings: LPS-induced macrophages of PPAR-α knockout female mice
[4] = test system: Hela cells; set-up: method as in PMID 29606130; value at effective dose: unit not given here; settings: for effective dose / percentage of control at effective dose / value at effective dose: 48 h;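 as to IC50: anti-proliferation of cancer cells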
[5] = test system: Liver cancer cells; set-up: method as in PMID 29606130; value at effective dose: unit not given here; settings: for effective dose / percentage of control at effective dose / value at effective dose: 48 h
[6] = test system: Pancreas cancer cells; set-up: method as in PMID 29606130; value at effective dose: unit not given here; settings: for effective dose / percentage of control at effective dose / value at effective dose: 48 h
[7] = test system: Prostate cancer cells; set-up: method as in PMID 29606130; value at effective dose: scale not given here; settings: for effective dose / percentage of control at effective dose / value at effective dose: 48 h;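 as to IC50: anti-proliferation of cancer cells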
[8] = test system: Breast cancer cells; set-up: method as in PMID 29606130; value at effective dose: unit not given here;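 as to IC50: anti-proliferation of cancer cells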
[9] = test system: Lung cancer cells; set-up: method as in PMID 29606130; value at effective dose: unit not given here
[10] = test system: Melanoma cells; set-up: method as in PMID 29606130
[11] = test system: B-Lymphocyte cells; set-up: method as in PMID 29606130; value at effective dose: unit not given here;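 as to IC50: anti-proliferation of cancer cells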
[12] = test system: T-cells (Jurkat); set-up: method as in PMID 29606130; value at effective dose: unit not given here

SMILES: Oc1ccc(/C=C/c2cc(O)cc(O)c2)cc1 [trans-Resveratrol]
- Fasting Glucose, Post-dose, percentage of control (pre-dose) in parentheses [1]: 94%
- MDA, Post-dose [1]: 3.49 µmol/L
- MDA, Post-dose, percentage of control (pre-dose) in parentheses [1]: 91%
- hs-CRP, Post-dose [1]: 3.28 mg/L
- hs-CRP, Post-dose, percentage of control (pre-dose) in parentheses [1]: 89%
- Fasting Glucose, Post-dose [1]: 6.98 mmol/L
- Fasting HbA1c, Post-dose [1]: 7.86%
- Fasting HbA1c, Post-dose, percentage of control (pre-dose) in parentheses [1]: 92%
- HOMA-IR, Post-dose [1]: 4.98
- HOMA-IR, Post-dose, percentage of control (pre-dose) in parentheses [1]: 93%

SMILES: O=c1c(O)c(-c2ccc(O)c(O)c2)oc2cc(O)cc(O)c12 [Quercetin]
- effect on secretion of TNF-α [2]: inhibition
- effect on secretion of TNF-α [3]: activation
- IC50 [4]: 10 µM
- percentage of control at IC50 dose [4]: 51%
- effective dose [4]: 40 µM
- percentage of control at effective dose [4]: 38%
- value at effective dose [4]: 21.3 ± 1.5
- IC50 [5]: 20 µM
- percentage of control at IC50 dose [5]: 32%
- effective dose [5]: 40 µM
- percentage of control at effective dose [5]: 29%
- value at effective dose [5]: 24.0 ± 2.0
- IC50 [6]: 40 µM
- percentage of control at IC50 dose [6]: 45%
- effective dose [6]: 40 µM
- percentage of control at effective dose [6]: 26%
- value at effective dose [6]: 11.7 ± 0.6
- IC50 [7]: 10 µM
- percentage of control at IC50 dose [7]: 48%
- effective dose [7]: 20 µM
- percentage of control at effective dose [7]: 17%
- value at effective dose [7]: 7.3 ± 1.2
- IC50 [8]: 10 µM
- effective dose [8]: 20 µM
- percentage of control at IC50 dose [8]: 39%
- percentage of control at effective dose [8]: 27%
- value at effective dose [8]: 5.7 ± 0.6
- IC50 [9]: 10 µM
- effective dose [9]: 20 µM
- percentage of control at IC50 dose [9]: 45%
- percentage of control at effective dose [9]: 36%
- value at effective dose [9]: 11.7 ± 1.5
- IC50 [10]: 10 µM
- effective dose [10]: 40 µM
- percentage of control at IC50 dose [10]: 54%
- percentage of control at effective dose [10]: 21%
- IC50 [11]: 10 µM
- effective dose [11]: 10 µM
- percentage of control at IC50 dose [11]: 29%
- percentage of control at effective dose [11]: 29%
- value at effective dose [11]: 8.0 ± 3.0
- IC50 [12]: 10 µM
- effective dose [12]: 40 µM
- percentage of control at IC50 dose [12]: 45%
- percentage of control at effective dose [12]: 81%
- value at effective dose [12]: 409.3 ± 6.4

SMILES: Cc1cc2nc3c(=O)[nH]c(=O)nc-3n(C[C@H](O)[C@H](O)[C@H](O)CO)c2cc1C [(−) Riboflavin, Riboflavin]
- effect on secretion of TNF-α [2]: inhibition
- effect on secretion of TNF-α [3]: activation
- effective dose [4]: 40 µM
- percentage of control at effective dose [4]: 64%
- value at effective dose [4]: 21.0 ± 1.0
- effective dose [5]: 80 µM
- percentage of control at effective dose [5]: 91%
- value at effective dose [5]: 74.0 ± 2.0
- effective dose [6]: 40 µM
- percentage of control at effective dose [6]: 67%
- value at effective dose [6]: 40.0 ± 2.0
- IC50 [7]: 80 µM
- percentage of control at IC50 dose [7]: 55%
- effective dose [7]: 40 µM
- percentage of control at effective dose [7]: 61%
- value at effective dose [7]: 20.0 ± 2.0
- effective dose [8]: 80 µM
- percentage of control at effective dose [8]: 61%
- value at effective dose [8]: 12.7 ± 1.5
- effective dose [9]: 10 µM
- percentage of control at IC50 dose [9]: 28%
- percentage of control at effective dose [9]: 23%
- value at effective dose [9]: 7.7 ± 2.1
- effective dose [10]: 40 µM
- percentage of control at effective dose [10]: 91%
- IC50 [11]: 80 µM
- effective dose [11]: 20 µM
- percentage of control at IC50 dose [11]: 55%
- percentage of control at effective dose [11]: 69%
- value at effective dose [11]: 19.3 ± 3.1
- effective dose [12]: 20 µM
- percentage of control at effective dose [12]: 32%
- value at effective dose [12]: 142.0 ± 4.4

SMILES: C=C1CC[C@H](O)C/C1=C/C=C1\CCC[C@]2(C)[C@@H]([C@H](C)CCCC(C)C)CC[C@@H]12 [Vitamin D3]
- Fasting Glucose, Post-dose, percentage of control (pre-dose) in parentheses [1]: 95%
- MDA, Post-dose [1]: 3.48 µmol/L
- MDA, Post-dose, percentage of control (pre-dose) in parentheses [1]: 97%
- hs-CRP, Post-dose [1]: 3.09 mg/L
- hs-CRP, Post-dose, percentage of control (pre-dose) in parentheses [1]: 92%
- Fasting Glucose, Post-dose [1]: 7.16 mmol/L
- Fasting HbA1c, Post-dose [1]: 8.19%
- Fasting HbA1c, Post-dose, percentage of control (pre-dose) in parentheses [1]: 93%
- HOMA-IR, Post-dose [1]: 4.74
- HOMA-IR, Post-dose, percentage of control (pre-dose) in parentheses [1]: 89%

SMILES: N=C(N)NC(=O)c1nc(Cl)c(N)nc1N [Amiloride-HCL]
- IC50 [4]: 10 µM
- percentage of control at IC50 dose [4]: 51%
- effective dose [4]: 80 µM
- percentage of control at effective dose [4]: 36%
- value at effective dose [4]: 19.7 ± 1.5
- percentage of control at IC50 dose [5]: 56%
- effective dose [5]: 40 µM
- percentage of control at effective dose [5]: 65%
- value at effective dose [5]: 36.7 ± 2.5
- effective dose [6]: 80 µM
- percentage of control at effective dose [6]: 69%
- value at effective dose [6]: 30.7 ± 1.2
- effective dose [7]: 80 µM
- percentage of control at effective dose [7]: 70%
- value at effective dose [7]: 27.0 ± 4.6
- IC50 [8]: 40 µM
- effective dose [8]: 20 µM
- percentage of control at IC50 dose [8]: 52%
- percentage of control at effective dose [8]: 61%
- value at effective dose [8]: 14.0 ± 5.3
- effective dose [9]: 40 µM
- percentage of control at effective dose [9]: 86%
- value at effective dose [9]: 23.3 ± 2.5
- effective dose [10]: 40 µM
- percentage of control at effective dose [10]: 90%
- IC50 [11]: 40 µM
- effective dose [11]: 20 µM
- percentage of control at IC50 dose [11]: 48%
- percentage of control at effective dose [11]: 56%
- value at effective dose [11]: 5.0 ± 1.0
- effective dose [12]: 20 µM
- percentage of control at effective dose [12]: 38%
- value at effective dose [12]: 132.7 ± 2.1

SMILES: COc1cc2c(cc1O)CC[C@@H]1[C@@H]2CC[C@]2(C)[C@@H](O)CC[C@@H]12 [2-Methoxyestradiol]
- IC50 [4]: 2.5 µM
- percentage of control at IC50 dose [4]: 48%
- effective dose [4]: 20 µM
- percentage of control at effective dose [4]: 13%
- value at effective dose [4]: 4.3 ± 1.5
- IC50 [5]: 5 µM
- percentage of control at IC50 dose [5]: 45%
- effective dose [5]: 10 µM
- percentage of control at effective dose [5]: 27%
- value at effective dose [5]: 19.7 ± 2.1
- IC50 [6]: 40 µM
- percentage of control at IC50 dose [6]: 42%
- effective dose [6]: 40 µM
- percentage of control at effective dose [6]: 42%
- value at effective dose [6]: 20.0 ± 2.0
- percentage of control at IC50 dose [7]: 39%
- effective dose [7]: 10 µM
- percentage of control at effective dose [7]: 30%
- value at effective dose [7]: 1.7 ± 1.5
- IC50 [8]: 10 µM
- effective dose [8]: 20 µM
- percentage of control at IC50 dose [8]: 45%
- percentage of control at effective dose [8]: 44%
- value at effective dose [8]: 8.0 ± 2.0
- effective dose [9]: 10 µM
- percentage of control at IC50 dose [9]: 17%
- percentage of control at effective dose [9]: 11%
- value at effective dose [9]: 2.3 ± 1.5
- effective dose [10]: 10 µM
- percentage of control at IC50 dose [10]: 25%
- percentage of control at effective dose [10]: 11%
- effective dose [11]: 5 µM
- percentage of control at IC50 dose [11]: 5%
- percentage of control at effective dose [11]: 33%
- value at effective dose [11]: 4.0 ± 2.0
- effective dose [12]: 5 µM
- percentage of control at IC50 dose [12]: 8%
- percentage of control at effective dose [12]: 8%
- value at effective dose [12]: 31.3 ± 5.7
